What was measured:
Conditions in all cases: 336 h, Table 3, post-emergence, 14±1 days post application
[1] = system: Lolium multiflorum (LOLMU); experiment: Post-emergence glasshouse test, visual injury, LOLMU; format: in vivo
Protocol: (§1) Seeds of a variety of test species are grown in a sandy loam soil mixture, Lolium multiflorum (LOLMU), Amaranthus retroflexus (AMARE), Echinochloa crus-gaffi (ECHCG), Veronica persica (VERPE), Glycine max (GLXMA), Oryza sativa (ORYSA), Zea mays (ZEAMX), spring wheat (TRZAS), Ipomoea hederacea (IPOHE), Ipomoea purpurea (PHBPU), Stellaria media (STEME), Solanum nigrum (SOLNI), Digitaria sanguinalis (DIGSA), Setaria italica (SETIT), Alopecurus myosuroides (ALOMY) and Avena fatua (AVEFA).
(§2) After sowing, at growth stage BBCH 12-14 (post-emergence), the plants are sprayed with an aqueous spray solution derived from the formulation of the technical active ingredient in acetone/water (50:50) solution containing 0.5% Tween 20 (polyoxyethlyene sorbitan monolaureate, CAS RN 9005-64-5). The test compounds are applied at the required concentration of active ingredient in g/ha. The test plants are then grown in a glasshouse under controlled environmental conditions and watered regularly as required. After 14±1 days post application (for post-emergence test), the test is evaluated by assessing the percentage damage caused to the plants in comparison with the untreated plots. The biological activities for post-emergence testing are shown below (Table 3 and Table 4) as a % visual injury.

[2] = system: Echinochloa crus-gaffi (ECHCG); experiment: Post-emergence glasshouse test, visual injury, ECHCG; format: in vivo, Echinochloa crus-galli
Protocol: as §1, §2

Veronica persica (VERPE) = experiment: Post-emergence glasshouse test, visual injury, VERPE; format: in vivo
Protocol: as §1, §2

[3] = system: Amaranthus retroflexus (AMARE); experiment: Post-emergence glasshouse test, visual injury, AMARE; format: in vivo
Protocol: as §1, §2

| SMILES | pest or weed control at 500 g/ha [1] | pest or weed control at 500 g/ha [2] | pest or weed control at 500 g/ha (Veronica persica (VERPE)) | pest or weed control at 500 g/ha [3] | pest or weed control at 125 g/ha [1] | pest or weed control at 125 g/ha [2] | pest or weed control at 125 g/ha (Veronica persica (VERPE)) | pest or weed control at 125 g/ha [3] | also measured |
| --- | --- | --- | --- | --- | --- | --- | --- | --- | --- |
| Cc1cc(-c2cnc(NCc3ccccc3C)nc2C(C)C)on1 [Compound 98] | – | – | – | – | – | – | – | – | pest or weed control at 62 g/ha [1]: 0%; pest or weed control at 62 g/ha [2]: 70%; pest or weed control at 62 g/ha (Veronica persica (VERPE)): 80%; pest or weed control at 62 g/ha [3]: 60% |
| Cc1cc(-c2cnc(NCc3ccc4c(c3)OCO4)nc2C(C)(C)C)on1 [Compound 54] | 5% | 40% | 99% | 40% | – | – | – | – | – |
| Cc1cc(-c2cnc(NC(C)(C)C)nc2C(C)C)on1 [Compound 5] | – | – | – | – | 60% | 70% | 100% | 100% | – |
| Cc1cc(-c2cnc(N)nc2C(F)(F)F)on1 [Compound 122] | – | – | – | – | 0% | 0% | 0% | 20% | – |
| Cc1cc(-c2cnc(NC3CCC3)nc2C(C)C)on1 [Compound 14] | 50% | 100% | 100% | 100% | – | – | – | – | – |
| COc1cc(CNc2ncc(-c3cc(C)no3)c(C(C)C)n2)cc(OC)c1 [Compound 15] | – | – | – | – | – | – | – | – | pest or weed control at 1000 g/ha ([1]; 1000 g/ha): 0%; pest or weed control at 1000 g/ha ([2]; 1000 g/ha): 30%; pest or weed control at 1000 g/ha (Veronica persica (VERPE); 1000 g/ha): 100%; pest or weed control at 1000 g/ha ([3]; 1000 g/ha): 60% |
| CC(=O)N1CCN(c2ncc(-c3cc(C)no3)c(C3CC3)n2)CC1 [Compound 50] | 0% | 50% | 0% | 60% | – | – | – | – | – |
| Cc1cc(-c2cnc(NC3CCCCC3)nc2C(C)C)on1 [Compound 7] | – | – | – | – | 20% | 80% | 60% | 80% | pest or weed control at 250 g/ha [1]: 20%; pest or weed control at 250 g/ha [2]: 100%; pest or weed control at 250 g/ha (Veronica persica (VERPE)): 100%; pest or weed control at 250 g/ha [3]: 100% |
| CCc1nc(NC2CCCC2)ncc1-c1cc(C)no1 [Compound 103] | – | – | – | – | 20% | 30% | 60% | 70% | – |
| CCN(C)c1ncc(-c2cc(C)no2)c(C(C)C)n1 [Compound 1, N-ethyl-N-methyl-5-(3-methyl-1,2-oxazol-5-yl)-4-(propan-2-yl)pyrimidin-2-amine] | 0% | 50% | 90% | 70% | 0% | 0% | 0% | 0% | – |
| Cc1cc(-c2cnc(NC3CCC3)nc2C2CC2)on1 [Compound 12] | – | – | – | – | – | – | – | – | pest or weed control at 250 g/ha [1]: 30%; pest or weed control at 250 g/ha [2]: 90%; pest or weed control at 250 g/ha (Veronica persica (VERPE)): 100%; pest or weed control at 250 g/ha [3]: 100% |
| Cc1cc(-c2cnc(NCc3ccccc3F)nc2C(C)C)on1 [Compound 55] | 40% | 70% | 99% | 100% | – | – | – | – | – |
| Cc1cc(-c2cnc(NCC3COCCO3)nc2C2CC2)on1 (stereo not drawn) [Compound 74] | 70% | 80% | 90% | 100% | – | – | – | – | – |
| CCc1nc(NCc2ccc(F)cc2)ncc1-c1cc(C)no1 [Compound 106] | – | – | – | – | 0% | 30% | 95% | 90% | – |
| Cc1cccc(CNc2ncc(-c3cc(C)no3)c(C(C)C)n2)c1 [Compound 99] | – | – | – | – | – | – | – | – | pest or weed control at 62 g/ha [1]: 30%; pest or weed control at 62 g/ha [2]: 70%; pest or weed control at 62 g/ha (Veronica persica (VERPE)): 80%; pest or weed control at 62 g/ha [3]: 60% |
| Cc1cc(-c2cnc(NCCCN3CCC(C)CC3)nc2-c2ccco2)on1 [Compound 25] | 0% | 30% | 0% | 30% | – | – | – | – | – |
| Cc1cc(-c2cnc(N(C)C)nc2C(C)C)on1 [Compound 82] | – | – | – | – | – | – | – | – | pest or weed control at 250 g/ha [1]: 30%; pest or weed control at 250 g/ha [2]: 70%; pest or weed control at 250 g/ha (Veronica persica (VERPE)): 20%; pest or weed control at 250 g/ha [3]: 0% |
| COc1ccccc1CNc1ncc(-c2cc(C)no2)c(-c2ccc(C)o2)n1 [Compound 23] | 0% | 50% | 80% | 70% | – | – | – | – | – |
| Cc1cc(-c2cnc(NCc3ccccn3)nc2C(C)C)on1 [Compound 39] | 0% | 20% | 80% | 70% | – | – | – | – | – |
